# Reference: PubChem BioAssay (NCI)
# “And” between values parts separate entries of the source, which are not always exact repeats. Equal entries are not always repeated.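 Cells were grown in 96-well plates and exposed to each compound for 48 hours at five concentrations; endpoints were interpolated linearly between bracketing concentrations, or set to the highest concentration if not reached. At the GI50, growth is halved. TGI: total growth inhibition.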
# Tests used:
# Assay in all cases: inhibition of tumour cell growth, NCI panel, 48 h
# CCRF-CEM leukemia = tested on: CCRF-CEM leukemia
# NCI-H522 lung = tested on: NCI-H522 lung
# SK-OV-3 ovarian = tested on: SK-OV-3 ovarian
# SR leukemia = tested on: SR leukemia
# OVCAR-5 ovarian = tested on: OVCAR-5 ovarian
# KM12 colon = tested on: KM12 colon
# A549 NSCLC = tested on: A549 NSCLC
# NCI-H460 lung = tested on: NCI-H460 lung
# OVCAR-8 ovarian = tested on: OVCAR-8 ovarian
# SNB-75 CNS = tested on: SNB-75 CNS
SMILES,TGI (CCRF-CEM leukemia),TGI (NCI-H522 lung),TGI (SK-OV-3 ovarian),TGI (SR leukemia),TGI (OVCAR-5 ovarian),TGI (KM12 colon),TGI (A549 NSCLC),TGI (NCI-H460 lung),TGI (OVCAR-8 ovarian),TGI (SNB-75 CNS),GI50 (CCRF-CEM leukemia),GI50 (NCI-H522 lung),GI50 (SK-OV-3 ovarian),GI50 (SR leukemia),GI50 (OVCAR-5 ovarian),GI50 (KM12 colon),GI50 (A549 NSCLC),GI50 (NCI-H460 lung),GI50 (OVCAR-8 ovarian),GI50 (SNB-75 CNS)
CCSc1nc(COC(=O)NC)c(COC(=O)NC)n1C,> 100 µM,> 95.4 µM,> 95 µM,> 100 µM,> 100 µM,> 100 µM,> 100 µM,> 100 µM,> 100 µM,> 100 µM,,,,,,,,,,
CC(=O)NC(CCCN(Cc1ccccc1)C(=O)N(CCCl)N=O)C(=O)NCc1ccccc1 (centres undefined),> 100 µM,> 80.6 µM,> 100 µM,> 88.8 µM,> 100 µM,> 100 µM,> 100 µM,> 79.6 µM,> 100 µM,63.9 µM,,,,,,,,,,
C/C=C(/CCCCNCCCC)[Si](C)(C)C,73.4 µM,25.3 µM,33.6 µM,35.1 µM,27.6 µM,30.6 µM,30.3 µM,31.9 µM,31.8 µM,27 µM,,,,,,,,,,
C=C(N=[N+]=[N-])c1cn(C2CC(O)C(CO)O2)c(=O)[nH]c1=O (centres undefined),> 100 µM,> 100 µM,> 100 µM,> 100 µM,> 100 µM,> 100 µM,> 100 µM,> 100 µM,> 100 µM,> 100 µM,,,,,,,,,,
Clc1ccc(CN2COc3c(cc(Cl)c4cccnc34)C2)cc1,4.94 µM,3.12 µM,13.3 µM,6.88 µM,8.11 µM,6.32 µM,6.12 µM,9.19 µM,5.05 µM,11 µM,,,,,,,,,,
C=CCc1ccc(O)c(-c2cc(C3Oc4c(-c5cc(CC=C)ccc5O)cc(O)cc4[C@@H]3CO)ccc2O)c1 (some centres undefined),43.7 µM,38.7 µM,> 100 µM,47.7 µM,> 100 µM,85.7 µM,> 100 µM,> 100 µM,> 100 µM,> 100 µM,,,,,,,,,,
CN(C)c1ccc(N=Nc2c([O-])ccc3ccccc23)cc1.[C-]#[O+].[C-]#[O+].[Ir],39.9 µM,23.5 µM,> 100 µM,57.7 µM,> 58.7 µM,> 100 µM,> 69.3 µM,> 100 µM,65.4 µM,> 100 µM,8.08 µM,7.83 µM,> 100 µM,17.9 µM,> 42.1 µM,> 100 µM,> 46.6 µM,> 100 µM,25 µM,54.8 µM
COc1ccccc1-c1c(C)nn2c(NCc3ccccn3)cc(C)nc12,> 50 µM,> 50 µM,> 50 µM,> 50 µM,> 50 µM,> 50 µM,> 50 µM,> 50 µM,> 50 µM,> 50 µM,6.89 µM,21.3 µM,> 50 µM,17 µM,> 50 µM,> 46.6 µM,26.7 µM,27.1 µM,23.9 µM,> 50 µM
Cc1cc(N2CCCC2)nc(N(CCCNc2ccnc3cc(Cl)ccc23)Cc2ccc3c(c2)OCO3)n1,4.03 µM,3.95 µM,20.3 µM,0.431 µM,8.92 µM,11 µM,12.5 µM,4.34 µM,5.41 µM,4.33 µM,0.398 µM,1.66 µM,4.98 µM,0.152 µM,2.46 µM,2.73 µM,2.74 µM,1.29 µM,1.8 µM,1.54 µM
CC(C)OC(=O)c1ccc2[nH]c(O)c(C(=Nc3ccc(N(C)C(=O)CN4CCN(C)CC4)cc3)c3ccccc3)c2c1,3.33 µM,3.02 µM,1.34 µM,0.721 µM,3.22 µM,1.56 µM,2.18 µM,1.89 µM,3.17 µM,1.54 µM,0.371 µM,1.22 µM,0.308 µM,0.0443 µM,1.51 µM,0.0251 µM,0.389 µM,0.448 µM,0.622 µM,0.101 µM
C[C@H](CSC(=O)c1ccccc1)C(=O)N1c2ccccc2C[C@H]1C(=O)O,> 100 µM,> 100 µM,> 100 µM,> 100 µM,> 100 µM,> 10 µM,> 100 µM,> 10 µM,> 100 µM,> 100 µM,,,,,,,,,,
NCc1ccc(-n2c(-c3nonc3N)nc3cnccc32)cc1,> 25 µM,> 25 µM,> 25 µM,> 25 µM,> 25 µM,> 25 µM,> 25 µM,> 25 µM,> 25 µM,> 25 µM,6.26 µM,7.66 µM,> 25 µM,2.67 µM,11.7 µM,8.79 µM,6.86 µM,13.7 µM,6.76 µM,0.291 µM
Fc1ccc(Nc2nc(NCCNc3ccnc4cc(Cl)ccc34)nc(N3CCOCC3)n2)cc1,16.3 µM,15.3 µM,24.6 µM,7.6 µM,32.1 µM,18.7 µM,25.1 µM,14 µM,40.6 µM,16.2 µM,0.457 µM,4.25 µM,11.9 µM,2.44 µM,17.6 µM,5.44 µM,10.5 µM,3.44 µM,11.6 µM,3.13 µM
O=C1c2ccccc2C(=O)C1C(c1ccc([N+](=O)[O-])cc1)C1C(=O)c2ccccc2C1=O,> 100 µM,> 100 µM,> 100 µM,> 100 µM,> 100 µM,> 100 µM,> 100 µM,> 100 µM,72.8 µM,> 100 µM,,,,,,,,,,
CC(=O)Oc1ccccc1C(=O)C1c2cccc(O)c2C(=O)c2c(O)cccc21,2.77 µM,3.88 µM,1.68 µM,0.967 µM,6.22 µM,1.59 µM,2.86 µM,2.1 µM,4.34 µM,4.54 µM,,,,,,,,,,
COC(=O)C(Cc1nc2ccc(Cl)cc2[nH]c1=O)C(=O)C(=O)Nc1ccccc1[N+](=O)[O-] (centres undefined),> 100 µM,> 100 µM,> 100 µM,> 100 µM,> 100 µM,> 100 µM,> 100 µM,> 100 µM,> 100 µM,> 100 µM,,,,,,,,,,
CCc1c[nH]c2ncnc(N3CC[C@@](N)(CNC(=O)c4ccc(F)cc4F)C3)c12,> 96.4 µM,> 75.7 µM,> 100 µM,44.1 µM,> 100 µM,> 100 µM,> 86.9 µM,> 100 µM,> 100 µM,77.5 µM,28.3 µM,29.6 µM,32 µM,16.4 µM,80 µM,12.6 µM,24.5 µM,35 µM,48.1 µM,16.3 µM
C=C(C)CCC(C)N1CCC(N2CCC(C(=O)NCCc3ccccc3)CC2)CC1 (centres undefined),> 100 µM,54.4 µM,77.3 µM,82.1 µM,> 100 µM,> 100 µM,> 100 µM,> 100 µM,> 100 µM,44.6 µM,19.9 µM,14 µM,21.2 µM,12.3 µM,78.9 µM,54.6 µM,32.2 µM,37.8 µM,27.8 µM,14.1 µM
N/N=C(\Cc1ccccc1)NN=C(N)N,> 100 µM,> 100 µM,> 100 µM,> 100 µM,> 100 µM,> 100 µM,> 100 µM,> 100 µM,> 100 µM,> 100 µM,,,,,,,,,,
Oc1cc(Cl)ccc1Oc1ccc(Cl)cc1Cl,10.6 µM,6.05 µM,7.86 µM,10.9 µM,12.1 µM,12.7 µM,8.12 µM,8.3 µM,9.18 µM,8.71 µM,3.36 µM,2.36 µM,2.97 µM,3.46 µM,3.37 µM,3.6 µM,2.6 µM,2.85 µM,2.81 µM,2.31 µM
C=C[C@]1(C)C=C2C(=O)[C@@]3(O)OC[C@@]4(CCCC(C)(C)C43O)C2(O)C(O)C1 (some centres undefined),16.5 µM,2.84 µM,69.6 µM,24.9 µM,25.9 µM,26.8 µM,30.8 µM,28.2 µM,15 µM,14 µM,1.83 µM,0.631 µM,23 µM,1.97 µM,12.1 µM,13.1 µM,14.5 µM,12.5 µM,4.03 µM,3.51 µM
CCc1c2c(nc3cccc(N)c13)-c1cc3c(c(=O)n1C2)COC(=O)[C@]3(O)CC,,,4.13 µM and 13 µM,,0.115 µM,,0.504 µM,,> 100 µM,16.9 µM,< 0.001 µM,0.00459 µM,0.00719 µM,< 0.001 µM,,0.159 µM,0.00817 µM,0.002 µM,0.00224 µM,0.0158 µM
CS(=O)(=O)Nc1cc(-c2ccc3ncnc(Nc4ccc5c(cnn5Cc5ccc(F)cc5)c4)c3c2)cnc1Cl,> 100 µM,12.8 µM,5.85 µM,6.73 µM,8.84 µM,9.72 µM,63.8 µM,13.3 µM,> 100 µM,2.97 µM,0.822 µM,1.79 µM,1.54 µM,1.71 µM,1.53 µM,2.93 µM,3.38 µM,2.8 µM,3.02 µM,0.211 µM
COc1cc(/C=C(/c2ccccc2)[N+](=O)[O-])c(OC)c2c1OCO2,> 100 µM,4.03 µM,8.29 µM,2.65 µM,3.58 µM,3.44 µM,5.03 µM,3.58 µM,6.74 µM,2.04 µM,0.522 µM,1.59 µM,2.89 µM,0.334 µM,1.76 µM,1.84 µM,2.1 µM,1.87 µM,2.12 µM,0.539 µM
O=[N+]([O-])c1ccc(CS(=O)Cc2ccccc2)cc1 (centres undefined),> 100 µM,> 100 µM,> 100 µM,> 100 µM,> 100 µM,> 100 µM,> 100 µM,> 100 µM,> 100 µM,> 100 µM,,,,,,,,,,
[O-]c1on[n+]2c1c(Nc1ccc(Cl)cc1)nc1ccccc12,> 100 µM,> 100 µM,> 100 µM,> 100 µM,> 100 µM,> 100 µM,> 100 µM,> 100 µM,> 100 µM,> 100 µM,,,,,,,,,,
Fc1ccc(Nc2nccc(-c3c(-c4ccc(C(F)(F)F)cc4)nn4ncccc34)n2)cc1F,> 25 µM,> 25 µM,> 25 µM,> 25 µM,> 25 µM,> 25 µM,> 25 µM,> 25 µM,> 25 µM,> 25 µM,> 25 µM,> 25 µM,> 25 µM,> 25 µM,> 25 µM,> 25 µM,> 25 µM,> 25 µM,> 25 µM,> 25 µM
CCCCC[C@H]1C/C=C2/C(=O)C(Cl)=C[C@@H]2C/C=C\CCCC(=O)O[C@@H](CCCCC)C/C=C2/C(=O)C(Cl)=C[C@@H]2C/C=C\CCCC(=O)O1,1.76 µM,0.78 µM,4.18 µM,1.35 µM,2.94 µM,0.92 µM,1.15 µM,1.02 µM,1.59 µM,3.89 µM,0.145 µM,0.352 µM,0.966 µM,0.159 µM,0.689 µM,0.388 µM,0.426 µM,0.405 µM,0.38 µM,0.544 µM
CC(C)(Br)C(=O)/C=C/c1ccccc1,1.63 µM,0.381 µM,> 83.1 µM,> 25.6 µM,19.7 µM,43.6 µM,56.7 µM,63.4 µM,5.2 µM,32.6 µM,,,,,,,,,,
CCOC(=O)c1c(C)n(Cc2ccc(Cl)cc2Cl)c2c1cc1oc(=O)c(=O)n3c(Cc4ccccc4)nc2c13,3.19 µM,25.5 µM,30.7 µM,2.38 µM,6.16 µM,3.47 µM,13.5 µM,7.06 µM,25.8 µM,27.7 µM,1.31 µM,6.1 µM,15.3 µM,0.378 µM,2.73 µM,1.63 µM,3.64 µM,2.68 µM,5.22 µM,10.1 µM
